In ChEMBL document CHEMBL1154197, “Synthesis and biological evaluation of berberine analogues as novel up-regulators for both low-density-lipoprotein receptor and insulin receptor” (2009):
Calls of active or inactive are those of the source. No cut-off for these calls is given here.

Columns and labels:
HepG2 [1] = assay: Upregulation of LDLR mRNA expression in human liver HepG2 at 10 ug/mL after 8 hrs by RT-PCR relative to control; type: functional
HepG2 [2] = assay: Upregulation of InsR mRNA expression in human liver HepG2 at 10 ug/mL after 8 hrs by RT-PCR relative to control; type: functional
HepG2 [3] = assay: Upregulation of LDLR […] expression in human liver HepG2 at 10 ug/mL after 12 hrs by flow cytometry; type: functional, cell-based
HepG2 [4] = assay: Upregulation of InsR […] expression in human liver HepG2 at 10 ug/mL after 12 hrs by flow cytometry; type: functional, cell-based

Row | SMILES | fold change (FC) (HepG2 [1]) | fold change (FC) (HepG2 [2]) | Activity (HepG2 [3]) | Activity (HepG2 [4])
1 | COc1cc2c(cc1O)-c1cc3cc(OC)c(OC)cc3c[n+]1CC2.[Cl-] | 1.1 | 0.8 |  | 
2 | COc1cc2c(cc1OCc1ccccc1)-c1cc3ccc(OC)c(OC)c3c[n+]1CC2.[Cl-] | 1.5 | 1.7 |  | 
3 | COc1ccc2cc3[n+](cc2c1OC)CCc1cc(O)ccc1-3.[Cl-] | 0.8 | 1.2 |  | 
4 | COc1cc2cc3[n+](cc2cc1OC)CCc1cc(O)ccc1-3.[Cl-] | 0.9 | 0.7 |  | 
5 | COc1cc2c(cc1O)CC[n+]1cc3cc(OC)c(OC)cc3cc1-2.[Cl-] [DEHYDRODISCRETINE CHLORIDE] | 1 | 0.6 |  | 
6 | COc1c(O)ccc2cc3[n+](cc12)CCc1cc2c(cc1-3)OCO2.[Cl-] [THALIFENDINE] | 1.6 | 1.7 | Active | Active
7 | COc1cc2cc3[n+](cc2cc1OC)CCc1cc(OCc2ccccc2)ccc1-3.[Cl-] | 1 | 0.8 |  | 
8 | COc1cc2c(cc1O)CC[n+]1cc3cc(OC)c(OC)c(OC)c3cc1-2.[Cl-] | 1 | 1 |  | 
9 | COc1cc2cc3[n+](cc2cc1OC)CCc1cc(OC)c(OC)c(OC)c1-3.[Cl-] | 1.1 | 0.8 |  | 
10 | COc1cc2c(cc1O)CC[n+]1cc3cc(O)ccc3cc1-2.[Cl-] | 1.4 | 1.2 |  | 
11 | COc1ccc2cc3[n+](cc2c1OC)CCc1cc2c(cc1-3)OCO2.[Cl-] [BERBERINE CHLORIDE] | 1.9 | 2.3 |  | 
12 | COc1ccc2cc3[n+](cc2c1OC)CCc1cc(OCc2ccccc2)ccc1-3.[Cl-] | 1.3 | 1.3 |  | 
13 | COc1cc2c(cc1OC)-c1cc3cc(OC)c(OC)cc3c[n+]1CC2.[Cl-] | 1.1 | 1.1 |  | 
14 | COc1cc2cc3[n+](cc2cc1OC)CCc1cc2c(cc1-3)OCO2.[Cl-] [PSEUDOBERBERINE] | 3.1 | 1.2 |  | 
15 | COc1cc2c(c(OC)c1OC)-c1cc3ccc(OC)c(OC)c3c[n+]1CC2.[Cl-] | 1.1 | 1.2 |  | 
16 | COc1cc2c(cc1OC)-c1cc3ccc(O)cc3c[n+]1CC2.[Cl-] | 1 | 0.9 |  | 
17 | Oc1ccc2cc3[n+](cc2c1)CCc1cc2c(cc1-3)OCO2.[Cl-] | 1.9 | 1.4 |  | 
